Test system: Raw 264.7 and HeLa cells
Settings: rhodamine-labeled polypeptide, n = 3

poly(ethylene glycol)-block-poly(O-pentenyl-L-serine-graft-cysteamine) [PEG112-b-(PPELS70-g-CA)]
time of maximal cell uptake level post polypeptide treatment (2 μg/well): 2 h
dependence of cell uptake level on incubation time and feeding amount (0.5-5 μg/well for 2 h, 2 μg/well for 0.4-4 h): increased with incubation time and the feeding amount

From PMC3555145 (Biomacromolecules, 2012)
